The values that follow come from a flash point compilation (Sun et al. 2020).

As for `CC(Cl)(Cl)Cl` [1,1,1-trichloroethane], the flash point is -1 °C. Still for that read-out and setting: in the case of `ClCC(Cl)Cl` [1,1,2-trichloroethane] it was 32 °C. The same measure, in the same setting: next, `c1ccc2c(c1)CCCC2` [1,2,3,4-tetrahydronaphthalene]: 77 °C; `Cc1ccc(C)c(C)c1` [1,2,4-trimethylbenzene]: 44 °C; `O=C1CCCCC1=O` [1,2-cyclohexanedione]: 84 °C. The same measure, in the same setting: in the case of `NCCN` [1,2-ethanediamine] it was 34 °C; in that of `C=C=C` [1,2-propadiene], -101 °C; in that of `C1=CCC=C1` [1,3-cyclopentadiene], 25 °C. Turning to `CCc1ccc(CC)cc1` [1,4-diethylbenzene], the flash point worked out at 56 °C.

Take `OCCCCCCO` [1,6-hexanediol]: the flash point came to 101 °C.

Regarding `CC(O)CN` (stereo not drawn) [1-amino-2-propanol], the flash point was found to be 77 °C. Take `CCCCCCCBr` [1-bromoheptane]: the flash point was 60 °C. As to `CCCCCCCCBr` [1-bromooctane], the flash point worked out at 78 °C. Still for that read-out and setting: in the case of `CCCCCCCCCCN` [1-decanamine] it was 86 °C; in that of `CCC1(C)CCCC1` [1-ethyl-1-methylcyclopentane], 6 °C; in that of `CCN1CCCCC1` [1-ethylpiperidine], 18 °C. As for `CCCCCCCS` [1-heptanethiol], the flash point was determined as 41 °C. Same read-out and setting: in the case of `CCCCCCCO` [1-heptanol] it was 71 °C; in that of `Cc1cccc(I)c1` [1-iodo-3-methylbenzene], 82 °C; in that of `CCCCI` [1-iodobutane], 33 °C. The same measure, in the same setting: in the case of `CCCCCI` [1-iodopentane] it was 43 °C; in that of `CCCCCCCCCO` [1-nonanol], 98 °C; in that of `CCCC(=O)c1ccccc1` [1-phenyl-1-butanone], 88 °C. On the same count and under the same terms, in the case of `CCCS` [1-propanethiol] it was -21 °C; in that of `CC(C)(C)CO` [2,2-dimethyl-1-propanol], 36 °C; in that of `CC(=O)C(C)=O` [2,3-butanedione], 6 °C. As for `OCC(Cl)CCl` (stereo not drawn) [2,3-dichloro-1-propanol], the flash point turned out to be 93 °C. On the same count and under the same terms, in the case of `C1=COCC1` [2,3-dihydrofuran] it was -24 °C.

Molecule `C=C(C)C(=C)C` [2,3-dimethyl-1,3-butadiene] displayed a flash point of -22 °C. Same read-out and setting: in the case of `C=C(C)C(C)C` [2,3-dimethyl-1-butene] it was -18 °C. The same measure, in the same setting: in the case of `CCC(C)C(C)C` (stereo not drawn) [2,3-dimethylpentane] it was -6 °C. For `Cc1ccc(O)c(C)c1` [2,4-dimethylphenol], the flash point was 94 °C.

The source holds these as a separate data set.
In the case of `COCCOC` [1,2-dimethoxyethane], the flash point is -2 °C.

For `COCCO` [2-methoxyethanol], the flash point came to 38 °C. The same measure, in the same setting: next, `CCCCCCCCCCCCCCCCC` [heptadecane]: 148 °C. For the molecule `CCCCCCCCN` [octylamine], the flash point came to 60 °C. The same measure, in the same setting: next, `CCCCCCCCc1ccccc1` [octylbenzene]: 107 °C; `CCCCCCCCOC=O` [octylformate]: 69 °C; `CCc1ccc(CC)cc1` [p-diethylbenzene]: 55 °C. Consider `Cc1ccc(C(C)C)cc1` [p-isopropyltoluene], for which the flash point was found to be 47 °C. Same read-out and setting: next, `CCCCC` [pentane]: -40 °C. The same measure, in the same setting: next, `CCCCC(=O)O` [pentanoicacid]: 85 °C; `CCCCCN` [pentylamine]: 4 °C; `CCCCCc1ccccc1` [pentylbenzene]: 66 °C.

On to `CCCCCC1CCCCC1` [pentylcyclohexane], for which the flash point was 63 °C. The same measure, in the same setting: next, `CCCCCOC=O` [pentylformate]: 26 °C; `CCC(=O)O` [propionicacid]: 58 °C. Still for that read-out and setting: next, `CCC#N` [propionitrile]: 6 °C; `CCCOC(C)=O` [propylacetate]: 10 °C.

Molecule `C=CC(=O)OCCC` [propylacrylate] displayed a flash point of 24 °C. Turning to `CCCN` [propylamine], the flash point is -30 °C. `CCCc1ccccc1` [propylbenzene]: the flash point worked out at 30 °C.

Molecule `CCCOC(=O)c1ccccc1` [propylbenzoate] had a flash point of 98 °C. On the same count and under the same terms, in the case of `CCCC1CCCCC1` [propylcyclohexane] it was 31 °C; in that of `CCCC1CCCC1` [propylcyclopentane], 16 °C. On the same count and under the same terms, in the case of `CC1CO1` (stereo not drawn) [propyleneoxide] it was -37 °C; in that of `CCCOC=O` [propylformate], -3 °C; in that of `c1cc[nH]c1` [pyrrole], 33 °C.

`c1ccc2ncccc2c1` [quinoline] registered a flash point of 101 °C. For the molecule `CCC(C)OC(C)=O` (stereo not drawn) [sec-butylacetate], the flash point worked out at 16 °C. Still for that read-out and setting: in the case of `CC(=O)CC(=O)OC(C)(C)C` [tert-butylacetoacetate] it was 76 °C; in that of `CC(C)(C)C1CCCCC1` [tert-butylcyclohexane], 40 °C; in that of `COC(C)(C)C` [tert-butylmethylether], -28 °C. Molecule `CCC(=O)OC(C)(C)C` [tert-butylpropanoate] came in with a flash point of 20 °C.

`CCC(C)(C)OC(C)=O` [tert-pentylacetate] came in with a flash point of 25 °C. On the same count and under the same terms, in the case of `C1CCSCC1` [thiacyclohexane] it was 21 °C; in that of `C1CCSC1` [thiacyclopentane], 13 °C; in that of `c1ccsc1` [thiophene], -9 °C. Molecule `C/C=C/C=O` [trans-2-butenal] registered a flash point of 9 °C.

Regarding `C/C=C/CCCC` [trans-2-heptene], the flash point is -6 °C. On the same count and under the same terms, in the case of `C/C=C/CCC` [trans-2-hexene] it was -25 °C; in that of `CC/C=C/C(=O)O` [trans-2-pentenoicacid], 102 °C.

Molecule `CC/C=C/CC` [trans-3-hexene] yielded a flash point of -25 °C. Same read-out and setting: in the case of `CC/C=C/CCCC` [trans-3-octene] it was 9 °C. Same read-out and setting: next, `C/C=C/C(C)C` [trans-4-methyl-2-pentene]: -27 °C; `CCCCN(CCCC)CCCC` [tributylamine]: 71 °C; `CCN(CC)CC` [triethylamine]: -9 °C. As to `CCCCCCCCCCCOC(C)=O` [undecylacetate], the flash point turned out to be 111 °C. `CCCCCCCCCCCc1ccccc1` [undecylbenzene]: the flash point is 144 °C.

The source holds these as a separate data set.
For the molecule `COCCOC` [1,2-dimethoxyethane], the flash point was 0.00 °C.

Molecule `COCCO` [2-methoxyethanol] showed a flash point of 42.00 °C. Still for that read-out and setting: in the case of `CCCCCCCCCCCCCCCCC` [heptadecane] it was 149.00 °C; in that of `CCCCC` [pentane], -49.00 °C.
